The values that follow come from patent US4952493A, “Peptide substrates for detecting virus-specified protease activity” (priority 1987, dated 1990).

For the experiment, the system named is virus-specified protease activity in extracts of Poliovirus Type 2 infected HeLa-O cells. It counts as biochemical. To be noted: pH 5.

“And” between values parts separate entries of the source, which are not always exact repeats. Equal values may be shown once. Numbered stars: 1 amine (or outer) side, 2 acyl side, 3 side chain; on linkers, the order of the positions; unused ones are H or OH. Peptide text beside a SMILES is read from it. * marks the point of attachment. AMC = Cc1cc(=O)oc2cc(N*)ccc12; Suc = O=C(CCC(=O)[*:2])[*:1]

`Cc1cc(=O)oc2cc(NC(=O)[C@H](CCC(N)=O)NC(=O)[C@H](CC(C)C)NC(=O)CNC(=O)[C@H](Cc3ccccc3)NC(=O)CCC(=O)O)ccc12` [Suc-Phe-Gly-Leu-Gln-AMC] (Suc-FGLQ-{AMC}): the “Protease Activity, AMC Substrate” value is 22.5 and 11.4.
